Ends that are not written are not given here.
Columns and labels:
[1] = test system: OB1-MHC class II GFP B cells; assay: Peptide internalization by confocal microscopy, OB1 MHC II GFP B cells; assay type: cell-based, mouse; details: Alexa Fluor 647-conjugated versions, 1 µM, 10 min, washed, confocal microscopy (Fig. 1 F)
OB1 B cells = assay: ERK1/2 phosphorylation in OB1 B cells; assay type: cell-based, mouse; details: 0.5 µM, 1 and 3 min; AGA 17-mer 3 min (Fig. 2 B)
[2] = Solubility and aggregation of peptide; assay type: physicochemical

Sequence	antigen internalization in OB1-MHC class II GFP B cells [1]	ERK1/2 phosphorylation, nested peptides (OB1 B cells)	water solubility [2]
FDKLPGAGASIEAQGGK [AGA 17-mer]	did not detect any	did not stimulate	
FDKLPGFGDSIEAQGGK [FGD 17-mer]			water-soluble

Reference: PMC3920557 (The Journal of Experimental Medicine, 2014)
